Test results published in US20170000784A1, “Autophagy Inhibitors” (priority 2013, published 2017).
Entries after “also recorded” stand apart in the source; their conditions may differ. Read-outs that look alike come from different tables or passages of the source.

Columns and labels:
[1] = system: UACC-1940 melanoma cell line; assay: Cell viability (IC50) screen, CellTiter Glo, UACC-1940; format: cell-based; conditions: Homo sapiens
Protocol: (§1) U2OS cells were seeded at 500 cells per well in 5A McCoy's with 10% FBS in 96-well clear bottom, black-walled tissue culture plates. All melanoma cell lines (A375, UACC-91, UACC-257, UACC-502, UACC-903, UACC-1308, UACC-1940, UACC-2534, and UACC-3291) were seeded at 5,000 cells per well in RPMI 1640 with 10% FBS in 96-well clear bottom, black-walled tissue culture plates. After 24 hour incubation, cells were treated with VATG compounds in triplicate with a 10-point half log dose response from […] for 24 and 48 hours. Medium was removed and 2× CellTiter Glo (Promega, G7571) reagent mixed 1:1 with Opti-MEM (Invitrogen, 31985062) was added at 100 μL per well and incubated at room temperature for 15 minutes while rocking. 75 μL per well was moved to a white-walled 96-well plate and luminescence quantified using the 96 LUM program on an EnVision plate reader (PerkinElmer) and exported for analysis. All triplicate data points were averaged and luminescent readings for each treatment were normalized to vehicle control for change in viability. Dose response curves were input into SigmaPlot for IC50 calculations (Systat Software Inc).

[2] = system: UACC-3291 melanoma cell line; assay: Cell viability (IC50) screen, CellTiter Glo, UACC-3291; format: cell-based; conditions: Homo sapiens
Protocol: as §1

[3] = system: UACC-257 melanoma cell line; assay: Cell viability (IC50) screen, CellTiter Glo, UACC-257; format: cell-based; conditions: Homo sapiens
Protocol: as §1

[4] = system: UACC-2534 melanoma cell line; assay: Cell viability (IC50) screen, CellTiter Glo, UACC-2534; format: cell-based; conditions: Homo sapiens
Protocol: as §1

[5] = system: lysosomes (LAMP1, LysoTracker Red) in U2OS cells; assay: Lysosome analysis by fluorescent microscopy (LAMP1 / LysoTracker Red); format: cell-based; conditions: 3 μM for 3 hours; for LysoTracker Red staining: LysoTracker Red for the final hour
Protocol: To determine deacidification of the lysosome, cells were incubated with LysoTracker Red, a dye that localizes to the lysosome based on the […] of the compartment. If the lysosome is no longer acidic, there is a loss in the amount of LysoTracker Red staining. Lysosomal inhibition was further determined by immunofluorescence of lysosome-associated membrane protein-1 (LAMP1). If the lysosome is inhibited, lysosomal turnover should decrease and an increase in the amount of LAMP1 staining would be apparent. U2OS cells were treated with Example 7 or Example 26 at 3 μM for 3 hours, supplementing LysoTracker Red for the final hour.
Using image analysis software, the mean intensities of both the LAMP1 and LysoTracker Red staining were measured and represent altered intensity level between treatments on intensity plots. Individual points were measured using a line scan on the image analysis software, which measures the intensity across the path of a line at any given point. Not only does the presence of LAMP1 positive membranes increases, but the intensity in LAMP1 staining also increases with Example 7 and Example 26 treatment. The inverse relationship in intensity holds true for LysoTracker Red staining.
U2OS cells were seeded at 5×10^4 cells per well in 5A McCoy's with 10% FBS on number 1.5 coverglass discs in 24-well tissue culture dishes. After 24 hours, cells were treated with 3 μM CQ, QN, VATG-027, or VATG-032 for three hours. An hour prior to fixation, media was supplemented with LysoTracker Red added at 100 nM (Invitrogen, L7528). Cells were washed with 1×PBS, fixed with 3.7% formaldehyde, permeabilized with 0.2% Triton-X 100, and blocked with 3% bovine serum albumin (BSA) in PBS. LAMP1 antibody (Santa Cruz, sc-18821) was added at 1:1000 for 16 hours at 4° C. followed by Alexa-Fluor-488-conjugated anti-mouse IgG (Invitrogen, A11008) 1:5000 for 1 hour at room temperature. Nuclei were stained with Hoechst 33342 (2 μg/mL). Coverglass discs were inverted onto a microscope slide using mounting gel. The microscope slides were imaged using a 60× oil-immersion objective on a Nikon Eclipse Ti fluorescent microscope. Intensity of the red and green channels were visualized using the intensity plot on the Nikon NIS Elements software (FIG. 13B). […] The RGB threshold of only the color […] indicating both LAMP1 and LysoTracker Red positivity was performed and data for analysis. The Mander's co-localization coefficient was produced from the Nikon NIS Elements software.
Next, the inventors sought to confirm the inhibition of lysosomal turnover induced by the compounds of the present invention, for example, those of Formula III, Formula III(a), Formula V, Formula V(a), Formula A, Formula A^1, Formula A^2, Formula A^3, or a pharmaceutically acceptable salt thereof, by evaluating the abundance of endogenous lysosomal protein, LAMP1. In addition, lysosome acidity was assessed by co-staining cells with LysoTracker Red, a dye that localizes to the lysosome based on the low pH. Cells were treated with 3 μM CQ, QN, Example 7, or Example 27 for 3 hours, with LysoTracker Red supplemented for the final hour. Following, cells were fixed and stained with endogenous LAMP1 antibodies and both LAMP1 and LysoTracker Red imaged. […] To quantify this phenotype, the co-localization of LAMP1 and LysoTracker Red was measured using image analysis software. […] In addition, Mander's colocalization coefficient (MCC) values were determined for each treatment (FIG. 13C). Not only does the presence of LAMP1-positive membranes increase, but the intensity of LAMP1 staining also increases with QN, Example 7, and Example 27 treatment (FIG. 13C).

A375 cells = format: cell-based, human; conditions: for IC10 concentration / Relative Growth Inhibition Compound A: A375 soft agar; for IC10 concentration: treated every other day for three weeks, single agent; for reduction of colony formation: combinatorial treatment with PLX-4032, each at IC10, FIG. 18A; for Relative Growth Inhibition Compound A: single compound at IC10; for expected (additive) reduction of colony formation: combination with PLX-4032, Bliss Independence prediction
Excerpt: After three weeks of treatment, cells were fixed and stained in 1% paraformaldehyde in 1×PBS containing 0.005% crystal violet overnight. Cells were destained with multiple washes of 1×PBS to remove background staining. Plates were scanned and images quantified using Nikon NIS Elements software. To quantify, each image was sharpened and an ROI of equal size drawn around each well. Intensity thresholds were set to include all pixels equal to or greater than the intensity of the mean background fluorescence. Objects within the threshold of each ROI were quantified using an automated object count function and exported for analysis. Object number was quantified to denote total colony formation. […] Additivity was established when the expected viability determined by the Bliss independence model was equal to the actual viability. This model was chosen since the effects of both compounds are mutually non-exclusive and follow first order Michaelis-Menten kinetics.
To determine if the effects of each combination were more than, less than, or equal to additive, predictions for additivity were made using the Bliss Independence (Table 7), as disclosed in Yan H, Zhang B, Li S, Zhao Q. A formal model for analyzing drug combination effects and its application in TNF-alpha-induced NFkappaB pathway. BMC Syst. […] Drug combination studies and their synergy quantification using the Chou-Talalay method.

[6] = UACC-1940 cell viability, CellTiter Glo, read-out: IC50
[7] = UACC-3291 cell viability, CellTiter Glo, read-out: IC50
[8] = UACC-257 cell viability, CellTiter Glo, read-out: IC50
[9] = UACC-2534 cell viability, CellTiter Glo, read-out: IC50
[10] = Compound A combined with AZD-8055, each at IC10
[11] = Compound A combined with PLX-4032, each at IC10

Structure (SMILES) | IC50 [1, 6] [nM] | IC50 [2, 7] [nM] | IC50 [3, 8] [nM] | IC50 [4, 9] [nM] | LAMP1 staining [5] | LysoTracker Red staining [5] | IC10 concentration (A375 cells) [nM] | Actual Growth Inhibition (A375 cells; [10]) | Actual Growth Inhibition (A375 cells; [11]) | reduction of colony formation (A375 cells) [%] | Relative Growth Inhibition Compound A (A375 cells) | Expected Bliss Additive Inhibition Value (A375 cells; [10]) | Expected Bliss Additive Inhibition Value (A375 cells; [11]) | expected (additive) reduction of colony formation (A375 cells) [%] | IC50 [1] [nM] | IC50 [2] [nM] | IC50 ([3]; UACC-257) [nM] | IC50 [4] [nM]
CCN(CC)CCCC(C)Nc1c2ccc(Cl)cc2nc2ccc(OC)cc12 (centres unmarked) [Quinacrine, quinacrine, reference compound] | 1900 | 2000 | 3000 | 2200 | substantial increases | essentially eliminated | 64 | 0.54 | 0.59 | 59 | – | – | – | – | – | – | – | –
COc1ccc2nc3cc(Cl)ccc3c(NCCCCN3CCN(C)CC3)c2c1 [Example 7, 6-Chloro-2-methoxy-N-(4-(4-methylpiperazin-1-yl)butyl)acridin-9-amine] | 4000 | 800 | 2000 | 2700 | substantial increases | essentially ablated; also recorded: less intense; also recorded: essentially eliminated | 5 | 0.57 | 0.64 | 64 | 0.37 | 0.44 | 0.49 | 49 | – | – | – | –
CN1CCN(CCNc2c3c(nc4cc(Cl)ccc24)CCCC3)CC1 [Example 27, 6-Chloro-N-(2-(4-methylpiperazin-1-yl)ethyl)-1,2,3,4-tetrahydroacridin-9-amine] | – | – | – | – | substantial increases | essentially ablated; also recorded: essentially eliminated | 2 | 0.50 | 0.62 | 62 | 0.37 | 0.44 | 0.49 | 49 | 21600 | 25300 | 25300 | 26600
